# Data from patent US10634663B2, “Determination of binding constants by means of equilibrium shifting” (Sovicell GmbH, priority 2014, dated 2020).
# Test system: Human plasma
# Test: Equilibrium shifting: dissociation constant for soluble target and fraction bound to whole human plasma
# Procedure: Determination of the affinity or dissociation constants is carried out in an advantageous embodiment according to equation I:
# [formula] wherein a plurality of binding constant values for KD^H and KD^P are first inserted into the equation and the respective APA concentrations to be expected for these values are calculated. The calculated APA concentrations are then compared with the measured APA concentration. In a further step, the smallest deviation between the calculated APA concentration and the measured APA concentration is determined by means of a numerical optimization method, preferably the “least squares” optimization method, and the formula γ=(APAmeasured−APAcalculated)^2. The lowest value for the deviation is selected from these deviations. […]
# 10 μL each of a 10 to 2000 μM stock solution of the test substances is added to the cavities. […] The concentration in the supernatant is determined by means of suitable methods, such as LC/MS/MS or scintillation counting. The unbound fraction of the substance is determined in cavities with the immobilized target relative to the reference samples. This obviates the need for calibration, as long as the signal to concentration ratio for the test substances and the quantitation system used follow a linear course. […]
structure (smiles),measurement,setting,value
CCCCCCCCCCCCCCCC(=O)N[C@@H](CCC(=O)NCCCC[C@H](NC(=O)[C@H](C)NC(=O)[C@H](C)NC(=O)[C@H](CCC(N)=O)NC(=O)CNC(=O)[C@H](CCC(=O)O)NC(=O)[C@H](CC(C)C)NC(=O)[C@H](Cc1ccc(O)cc1)NC(=O)[C@H](CO)NC(=O)[C@H](CO)NC(=O)[C@@H](NC(=O)[C@H](CC(=O)O)NC(=O)[C@H](CO)NC(=O)[C@@H](NC(=O)[C@H](Cc1ccccc1)NC(=O)[C@@H](NC(=O)CNC(=O)[C@H](CCC(=O)O)NC(=O)[C@H](C)NC(=O)[C@@H](N)Cc1cnc[nH]1)[C@@H](C)O)[C@@H](C)O)C(C)C)C(=O)N[C@@H](CCC(=O)O)C(=O)N[C@@H](Cc1ccccc1)C(=O)N[C@H](C(=O)N[C@@H](C)C(=O)N[C@@H](Cc1c[nH]c2ccccc12)C(=O)N[C@@H](CC(C)C)C(=O)N[C@H](C(=O)N[C@@H](CCCNC(=N)N)C(=O)NCC(=O)N[C@@H](CCCNC(=N)N)C(=O)NCC(=O)O)C(C)C)[C@@H](C)CC)C(=O)O [liraglutide],fraction of the peptide bound to whole human plasma (undiluted),calculated from KD^P and [P] 600 μM,98.8%
same,"peptide dissolved in the plasma in free, or unbound, form",whole human plasma (undiluted),1.2%
